Reference: ChEMBL document CHEMBL4616653, “Naphthacemycins from a Streptomyces sp. as Protein-Tyrosine Phosphatase Inhibitors” (J Nat Prod, 2020)

Biological target: T1, Tyrosine-protein phosphatase non-receptor type 1 (Homo sapiens, UniProt P18031)
T1 sequence (P18031 whole entry): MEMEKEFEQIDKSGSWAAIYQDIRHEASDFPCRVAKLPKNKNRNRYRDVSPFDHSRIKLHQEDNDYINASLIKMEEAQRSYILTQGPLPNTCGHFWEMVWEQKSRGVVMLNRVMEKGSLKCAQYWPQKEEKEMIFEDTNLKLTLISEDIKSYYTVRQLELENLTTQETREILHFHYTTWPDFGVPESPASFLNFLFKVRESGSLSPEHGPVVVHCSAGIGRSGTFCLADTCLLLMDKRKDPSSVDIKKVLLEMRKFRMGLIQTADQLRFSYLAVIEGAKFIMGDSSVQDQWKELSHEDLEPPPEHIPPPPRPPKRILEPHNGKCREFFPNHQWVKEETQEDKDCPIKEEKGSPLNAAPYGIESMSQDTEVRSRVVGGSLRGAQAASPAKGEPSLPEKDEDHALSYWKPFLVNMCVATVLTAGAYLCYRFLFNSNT
Assay: Inhibition of recombinant human PTP1B expressed in Escherichia coli using pNPP as substrate preincubated for 15 mins followed by substrate addition and measured after 60 mins

SMILES | IC50 [nM]
COc1cc(O)c(Cl)c(C)c1-c1cc(O)cc2cc3c(c(O)c12)C(=O)c1c(O)c(Cl)c(O)c(Cl)c1C3(C)C | 2110
COc1cc(O)c(Cl)c(C)c1-c1cc(O)c(Cl)c2cc3c(c(O)c12)C(=O)c1c(cc(O)c(Cl)c1O)C3(C)C | 8270
COc1cc(O)c(Cl)c(C)c1-c1cc(O)cc2cc3c(c(O)c12)C(=O)c1c(O)cc(O)cc1C3(C)C | 3380
COc1c(Cl)c(O)c(Cl)c(C)c1-c1cc(O)c(Cl)c2cc3c(c(O)c12)C(=O)c1c(O)c(Cl)c(O)c(Cl)c1C3(C)C | 340
COc1cc(O)c(Cl)c(C)c1-c1cc(O)cc2cc3c(c(O)c12)C(=O)c1c(cc(O)c(Cl)c1O)C3(C)C | 2700
COc1cc(O)cc(C)c1-c1cc(O)cc2cc3c(c(O)c12)C(=O)c1c(cc(O)c(Cl)c1O)C3(C)C | 7690
COc1cc(O)c(Cl)c(C)c1-c1cc(O)c(Cl)c2cc3c(c(O)c12)C(=O)c1c(O)c(Cl)c(O)c(Cl)c1C3(C)C | 2810
COc1cc(O)c(Cl)c(C)c1-c1cc(O)c(Br)c2cc3c(c(O)c12)C(=O)c1c(O)cc(O)cc1C3(C)C | 2620
